Measurements: publication PMC5556379 (Journal of medicinal chemistry, 2017)

Key:
hiCE = target: T1, hiCE (Homo sapiens, UniProt O00748); type: cell-based; conditions: U373MG cells expressing hiCE; irinotecan as substrate
T1 sequence (O00748 27-559): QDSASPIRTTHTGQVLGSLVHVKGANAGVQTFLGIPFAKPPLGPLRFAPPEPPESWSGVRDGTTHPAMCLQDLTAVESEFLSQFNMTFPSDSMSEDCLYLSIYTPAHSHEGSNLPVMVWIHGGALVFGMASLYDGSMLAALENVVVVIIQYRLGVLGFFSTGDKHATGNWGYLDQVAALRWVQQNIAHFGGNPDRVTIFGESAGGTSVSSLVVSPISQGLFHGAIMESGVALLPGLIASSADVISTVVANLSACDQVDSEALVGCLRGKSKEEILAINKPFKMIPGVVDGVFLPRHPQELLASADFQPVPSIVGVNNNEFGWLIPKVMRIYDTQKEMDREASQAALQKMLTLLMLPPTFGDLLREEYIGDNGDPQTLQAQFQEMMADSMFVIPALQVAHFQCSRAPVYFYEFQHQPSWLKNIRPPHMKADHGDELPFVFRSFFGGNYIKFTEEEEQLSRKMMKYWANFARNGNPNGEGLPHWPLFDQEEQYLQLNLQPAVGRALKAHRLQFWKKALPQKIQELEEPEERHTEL

hCE1 = target: T2, hCE1 (Homo sapiens, UniProt P23141); conditions: read-out: Ki with hCE1; cited from earlier work
T2 sequence (P23141 18-567): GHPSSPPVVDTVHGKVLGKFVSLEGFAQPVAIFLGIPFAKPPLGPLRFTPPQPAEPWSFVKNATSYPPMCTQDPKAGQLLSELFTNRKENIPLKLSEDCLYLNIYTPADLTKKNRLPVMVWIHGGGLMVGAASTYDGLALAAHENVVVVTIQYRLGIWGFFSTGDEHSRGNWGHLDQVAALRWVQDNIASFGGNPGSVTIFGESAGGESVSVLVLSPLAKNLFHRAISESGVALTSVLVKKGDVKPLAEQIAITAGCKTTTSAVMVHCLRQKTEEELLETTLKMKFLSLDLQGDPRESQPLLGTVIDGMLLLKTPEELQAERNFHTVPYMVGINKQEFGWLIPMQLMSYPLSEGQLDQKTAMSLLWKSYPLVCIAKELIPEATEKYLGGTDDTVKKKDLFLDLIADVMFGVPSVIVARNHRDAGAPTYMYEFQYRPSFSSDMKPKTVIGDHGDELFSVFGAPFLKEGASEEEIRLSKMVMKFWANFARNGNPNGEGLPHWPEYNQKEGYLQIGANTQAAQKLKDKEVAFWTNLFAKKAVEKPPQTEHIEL

| SMILES | inhibition of hiCE in cells (loss in 7-ethyl-10-hydroxycamptothecin production) (hiCE) | Ki (hCE1) [nM] |
| --- | --- | --- |
| COc1ccc(N(C)C2=CC(=O)C(=O)c3ccccc32)cc1 [Compound 17, 4-((4-Methoxyphenyl)(methyl)amino)naphthalene-1,2-dione] | less than 23% |  |
| Cc1ccc(N(C)C2=CC(=O)C(=O)c3ccccc32)cc1 [Compound 18, 4-((4-Methylphenyl)(methyl)amino)naphthalene-1,2-dione] | less than 23% |  |
| Cc1cccc2c3c(ccc12)C1=C(C(=O)C3=O)[C@@H](C)CO1 [dihydrotanshinone] |  | 398 |
